Experimental data as given in article PMC6105827, “Antitrypanosomal 8-Hydroxy-Naphthyridines Are Chelators of Divalent Transition Metals” (Antimicrobial Agents and Chemotherapy, 2018).
Read-outs that look alike come from different tables or passages of the source.

Legend:
[1] = test system: HepG2 cells; assay: HepG2 compound sensitivity assay (with/without ZnCl2); details: Homo sapiens, HepG2, read-out: HepG2 EC50
Protocol: (§1) The clonal Leishmania donovani cell line LdBOB (derived from MHOM/SD/62/1S-CL2D) was grown as promastigotes at 28°C, as described previously ([53]). Bloodstream-form T. brucei MiTat 1.2 clone 221a and its derived subline, 2T1, were cultured at 37°C in the presence of 5% CO2 in HMI9-T medium, as described previously ([54]). The human carcinoma HepG2 cell line was grown at 37°C with 5% CO2 in minimal Eagle's medium (MEM) with GlutaMAX (1×; Sigma-Aldrich), nonessential amino acids (Sigma-Aldrich), and 10% FBS. Human HepG2 and THP-1 cells used in this study were ethically sourced from the ATCC.
(§2) L. donovani intramacrophage ([7]), HepG2 ([55]), T. brucei ([56]), and L. donovani promastigote ([57]) compound sensitivity assays were carried out as described previously. Human HepG2 and THP-1 cells used in these assays were provided by the ATCC. Data were processed by using GRAFIT (version 5.0.4; Erithacus Software) and fitted to a 2-parameter equation to obtain the effective concentration inhibiting growth by 50% (EC50). Data are presented as the means of results from at least two independent experiments.
(§3) In the first instance, the maximum tolerated concentrations of ZnCl2, CaCl2, CuCl2, MgCl2, MnCl2, and FeCl2 were determined for each cell type. […] Standard drug sensitivity assays were carried out (as described above) for each cell type with compounds 1, 2, and 3 in the presence and absence of the maximum tolerated concentration of metal salt.

[2] = test system: L. donovani promastigotes; assay: L. donovani promastigote compound sensitivity assay (with/without metal salts)
Protocol: as §1, §2, §3

[3] = test system: L. donovani intramacrophage amastigotes; assay: L. donovani intramacrophage compound sensitivity assay; format: cell-based; details: Leishmania donovani, read-out: Intra-macrophage EC50
Protocol: as §2

[4] = test system: Tb927.11.1910 knockdown bloodstream trypanosomes; assay: Drug sensitivity of Tb927.11.1910 RNAi knockdown trypanosomes; format: cell-based; details: Trypanosoma brucei, read-out: EC50, Tb927.11.1910 knockdown
From the text: (§4) Stem-loop RNAi constructs were assembled as described previously ([54], [62]). PCR primers were designed by using RNAit software ([63]). For HL2 (Tb927.11.15050), primers HL2FW and HL2RV were used to generate a 533-bp gene fragment, and for HL3 (Tb927.11.1910), primers HL3FW and HL3RV were used to generate a 513-bp gene fragment. The accuracy of all assembled constructs was verified by sequencing. Assembled constructs were linearized by using AscI prior to transfection into bloodstream T. brucei 2T1 parasites ([62]). In addition to phleomycin (1 μg ml^−1), trypanosomes maintaining successfully integrated vectors were selected using hygromycin (2.5 μg ml^−1) and confirmed to be puromycin (2 μg ml^−1) resistant. To generate C-terminal 12×Myc tagging vectors for Tb927.11.15050 (Myc1) and Tb927.11.1910 (Myc2), primers Myc1FW and Myc1RV and primers Myc2FW and Myc2RV were used to generate 924-bp and 1,095-bp fragments, respectively. Fragments were inserted into the pNATx^12xMyc construct ([54]) via HindIII and XbaI restriction sites. The accuracy of the assembled constructs was verified by sequencing, and the constructs were linearized with the restriction endonuclease MfeI prior to transfection into the above-described HL2 and HL3 trypanosomes. Trypanosomes maintaining successfully integrated vectors were selected with blasticidin (1 μg ml^−1).

[5] = test system: THP-1 cells; assay: THP-1 cell sensitivity; format: cell-based; details: Homo sapiens
Protocol: as §2

[6] = test system: T. brucei bloodstream forms; assay: microbe, parasite or virus in culture
Protocol: as §1, §2, §3

[7] = test system: L. donovani promastigotes; assay: Measurement of 8-HNT compound uptake by UPLC-MS/MS; format: cell-based, Leishmania donovani; details: 5 μM, 30 min
Protocol: Triplicate samples of the culture (2 × 10^7 cells; 1 ml) were harvested by centrifugation at 16,000 × g for 5 min. The supernatant (200 μl) was collected from each centrifuged sample, transferred to a fresh Eppendorf tube, and terminated by the addition of 400 μl acetonitrile (supernatant fraction). The remaining supernatant was discarded, and acetonitrile (60 μl) was added to each pellet fraction. Finally, 400 μl acetonitrile was added to 200 μl of culture (equivalent of 4 × 10^6 cells) (total fraction). All fractions were then centrifuged at 16,000 × g for 10 min and diluted as required with MilliQ water. All samples were analyzed in triplicate on a Waters Acquity UPLC instrument coupled to a Waters micro TQs mass spectrometer. Chromatographic separation was achieved by using a Waters BEH (bridged ethylene hybrid) C18 column (1.7-μm particle size, 2.1 by 50 mm), with a flow rate of 0.6 ml min^−1, an injection volume of 0.2 μl, and the following 2-min gradient: 95% mobile phase A initially, with holding for 0.3 min before decreasing to 5% mobile phase A over the next minute and holding for a further 0.49 min before returning to 95% mobile phase A. Mobile phase A was water plus 0.1% formic acid, and mobile phase B was methanol plus 0.1% formic acid. […]

[8] = test system: Tb927.11.15050 knockdown bloodstream trypanosomes; assay: Drug sensitivity of Tb927.11.15050 RNAi knockdown trypanosomes; format: cell-based, Trypanosoma brucei; details: induced vs uninduced RNAi knockdown
From the text: as §4

## Cc1nnc(-c2nc(NCc3ccc(Cl)cc3)c3cccnc3c2O)[nH]1 [Compound 1]
[1]
  EC50: 10.4 µM
[2]; Leishmania donovani, read-out: EC50 values, WT, promastigotes, absence of cation, FeCl2 experiment
  EC50: 800 ± 30 nM
[2]; Leishmania donovani, read-out: EC50 values, WT, promastigotes, absence of cation, ZnCl2 experiment
  EC50: 800 ± 10 nM
[2]; Leishmania donovani, read-out: L. donovani pro EC50, promastigotes (Fig. 1)
  EC50: 760 nM
[2]; promastigotes, FeCl2 (100 μM) vs WT
  Shift: 2.0 fold
[2]; promastigotes, ZnCl2 (100 μM) vs WT
  Shift: 11.0 fold
[2]; promastigotes, ZnCl2 (100 μM) vs WT, listed as compound 1
  Shift: 11 fold
[2]; read-out: EC50 values, WT, promastigotes, absence of cation, FeCl2 experiment
  EC50: 780 ± 30 nM
[3]
  EC50: 2100 nM
[4]
  EC50: 600 ± 50 nM
[5]
  EC50: > 50 µM
[6]; CaCl2 (3 mM) vs WT
  Shift (fold): 1.1 fold
[6]; CuCl2 (5 μM) vs WT
  Shift (fold): 1.1 fold
[6]; FeCl2 (10 μM) vs WT
  Shift (fold): 8.0 fold
[6]; FeCl2 (10 μM) vs WT, listed as compound 1
  Shift (fold): 8 fold
[6]; MgCl2 (1 mM) vs WT
  Shift (fold): 1.1 fold
[6]; MnCl2 (10 μM) vs WT
  Shift (fold): 1.0 fold
[6]; Trypanosoma brucei, read-out: EC50, wild-type [WT] trypanosomes
  EC50: 850 ± 50 nM
[6]; Trypanosoma brucei, read-out: Mean EC50 ± SD, Plus cation, plus CaCl2 (3 mM)
  EC50: 400 ± 100 nM
[6]; Trypanosoma brucei, read-out: Mean EC50 ± SD, Plus cation, plus CuCl2 (5 μM)
  EC50: 400 ± 5 nM
[6]; Trypanosoma brucei, read-out: Mean EC50 ± SD, Plus cation, plus MgCl2 (1 mM)
  EC50: 400 ± 30 nM
[6]; Trypanosoma brucei, read-out: Mean EC50 ± SD, Plus cation, plus MnCl2 (10 μM)
  EC50: 400 ± 20 nM
[6]; Trypanosoma brucei, read-out: Mean EC50 ± SD, WT, absence of cation, CaCl2 experiment
  EC50: 300 ± 800 nM
[6]; Trypanosoma brucei, read-out: Mean EC50 ± SD, WT, absence of cation, CuCl2 experiment
  EC50: 300 ± 80 nM
[6]; Trypanosoma brucei, read-out: Mean EC50 ± SD, WT, absence of cation, FeCl2 experiment
  EC50: 220 ± 10 nM
[6]; Trypanosoma brucei, read-out: Mean EC50 ± SD, WT, absence of cation, MgCl2 experiment
  EC50: 400 ± 10 nM
[6]; Trypanosoma brucei, read-out: Mean EC50 ± SD, WT, absence of cation, MnCl2 experiment
  EC50: 400 ± 10 nM
[6]; Trypanosoma brucei, read-out: Mean EC50 ± SD, WT, absence of cation, ZnCl2 experiment
  EC50: 360 ± 90 nM
[6]; Trypanosoma brucei, read-out: T. brucei bsf EC50, bloodstream form (Fig. 1)
  EC50: 320 nM
[6]; ZnCl2 (200 μM) vs WT
  Shift (fold): 8.0 fold
[6]; ZnCl2 (200 μM) vs WT, listed as compound 1
  Shift (fold): 8 fold
[6]; read-out: Mean EC50 ± SD, WT, absence of cation, FeCl2 experiment
  EC50: 200 ± 10 nM
[6]; read-out: Mean EC50 ± SD, WT, absence of cation, ZnCl2 experiment
  EC50: 350 ± 10 nM
[7]; 4°C
  Accumulation within cells relative to supernatant (equivalent Kp values): 29 ± 13 times
[7]; 37°C
  Accumulation within cells relative to supernatant (equivalent Kp values): 296 ± 69 times
[8]
  Increase in EC50 on knockdown of Tb927.11.15050: > 3 fold
